Source: PubChem BioAssay AID2060362 (Molecular Pharmacology Branch, DTP, NCI, 2025)
pIC50: −log10 of the molar value.

Test system: 128128-338-R-J1-PDC spheroids, viability % test/control
Experiment: Anticancer human tumor 128128-338-R-J1-PDC patient-derived melanoma cell line growth inhibition [TAK]
Conditions: spheroids with HUVEC and MSC; for pIC50: curve of first compound; for viability, T/C: stronger effect = lower value
Outline: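 Drug combinations, each paired with TAK-243 or ipatasertib, were tested on multi-cell spheroids of 60% malignant cells, 25% HUVEC and 15% hMSC. Top concentrations were at or near the clinical Cmax (10 microM if undetermined), decreasing by half-log; viability is given as % test/control.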

[1] = second compound 0.3 µM, first compound 0.0316 µM
[2] = second compound 0.3 µM, first compound 0.1 µM
[3] = second compound 0.3 µM, first compound 0.316 µM
[4] = second compound 0.3 µM, first compound 1 µM
[5] = second compound 0.3 µM, first compound 3.16 µM
[6] = second compound 0.3 µM, first compound 10 µM
[7] = second compound 0.949 µM, first compound 0.0316 µM
[8] = second compound 0.949 µM, first compound 0.1 µM
[9] = second compound 0.949 µM, first compound 0.316 µM
[10] = second compound 0.949 µM, first compound 1 µM
[11] = second compound 0.949 µM, first compound 3.16 µM
[12] = second compound 0.949 µM, first compound 10 µM
[13] = second compound 3 µM, first compound 0.0316 µM
[14] = second compound 3 µM, first compound 0.1 µM
[15] = second compound 3 µM, first compound 0.316 µM
[16] = second compound 3 µM, first compound 1 µM
[17] = second compound 3 µM, first compound 3.16 µM
[18] = second compound 3 µM, first compound 10 µM
[19] = second compound 9.49 µM, first compound 0.0316 µM
[20] = second compound 9.49 µM, first compound 0.1 µM
[21] = second compound 9.49 µM, first compound 0.316 µM
[22] = second compound 9.49 µM, first compound 1 µM
[23] = second compound 9.49 µM, first compound 3.16 µM
[24] = second compound 9.49 µM, first compound 10 µM
[25] = second compound 30 µM, first compound 0.0316 µM
[26] = second compound 30 µM, first compound 0.1 µM
[27] = second compound 30 µM, first compound 0.316 µM
[28] = second compound 30 µM, first compound 1 µM
[29] = second compound 30 µM, first compound 3.16 µM
[30] = second compound 30 µM, first compound 10 µM
[31] = second compound 0.3 µM, first compound 0.000316 µM
[32] = second compound 0.3 µM, first compound 0.001 µM
[33] = second compound 0.3 µM, first compound 0.00316 µM
[34] = second compound 0.3 µM, first compound 0.01 µM
[35] = second compound 0.949 µM, first compound 0.000316 µM
[36] = second compound 0.949 µM, first compound 0.001 µM
[37] = second compound 0.949 µM, first compound 0.00316 µM
[38] = second compound 0.949 µM, first compound 0.01 µM
[39] = second compound 3 µM, first compound 0.000316 µM
[40] = second compound 3 µM, first compound 0.001 µM
[41] = second compound 3 µM, first compound 0.00316 µM
[42] = second compound 3 µM, first compound 0.01 µM
[43] = second compound 9.49 µM, first compound 0.000316 µM
[44] = second compound 9.49 µM, first compound 0.001 µM
[45] = second compound 9.49 µM, first compound 0.00316 µM
[46] = second compound 9.49 µM, first compound 0.01 µM
[47] = second compound 30 µM, first compound 0.000316 µM
[48] = second compound 30 µM, first compound 0.001 µM
[49] = second compound 30 µM, first compound 0.00316 µM
[50] = second compound 30 µM, first compound 0.01 µM
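Also: spheroids exposed to compounds for 7 days.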
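For viability, T/C in this document: 100% = DMSO vehicle wells.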

CC(C)(C)c1nc(-c2cccc(NS(=O)(=O)c3c(F)cccc3F)c2F)c(-c2ccnc(N)n2)s1 + CC(C)NCC(C(=O)N1CCN(c2ncnc3c2C(C)CC3O)CC1)c1ccc(Cl)cc1
pIC50 (second compound 0.3 µM): 7.34 | pIC50 (second compound 0.949 µM): 7.39 | pIC50 (second compound 3 µM): > 7.50 | pIC50 (second compound 9.49 µM): > 7.50 | pIC50 (second compound 30 µM): > 7.50 | viability, T/C [1]: 61% | viability, T/C [2]: 27.1% | viability, T/C [3]: 6.08% | viability, T/C [4]: 1.93% | viability, T/C [5]: 1.83% | viability, T/C [6]: 8.83% | viability, T/C [7]: 58.6% | viability, T/C [8]: 21% | viability, T/C [9]: 2.85% | viability, T/C [10]: 1.56% | viability, T/C [11]: 0.98% | viability, T/C [12]: 2.06% | viability, T/C [13]: 29.6% | viability, T/C [14]: 8.97% | viability, T/C [15]: 1.74% | viability, T/C [16]: 1.17% | viability, T/C [17]: 0.79% | viability, T/C [18]: 0.99% | viability, T/C [19]: 12.7% | viability, T/C [20]: 1.27% | viability, T/C [21]: 1.2% | viability, T/C [22]: 0.7% | viability, T/C [23]: 0.6% | viability, T/C [24]: 0.64% | viability, T/C [25]: 0.69% | viability, T/C [26]: 0.56% | viability, T/C [27]: 0.78% | viability, T/C [28]: 0.44% | viability, T/C [29]: 0.34% | viability, T/C [30]: 0.42%

CC(C)CC(NC(=O)CNC(=O)c1cc(Cl)ccc1Cl)B1OC(=O)CC(CC(=O)O)(C(=O)O)O1 (stereo not given) + CC(C)NCC(C(=O)N1CCN(c2ncnc3c2C(C)CC3O)CC1)c1ccc(Cl)cc1
pIC50 (second compound 0.3 µM): 8.10 | pIC50 (second compound 0.949 µM): 8.11 | pIC50 (second compound 3 µM): 8.25 | pIC50 (second compound 9.49 µM): 8.32 | pIC50 (second compound 30 µM): > 9.50 | viability, T/C [31]: 97.4% | viability, T/C [32]: 100% | viability, T/C [33]: 102% | viability, T/C [34]: 38.1% | viability, T/C [1]: 2.27% | viability, T/C [2]: 0.15% | viability, T/C [35]: 98.6% | viability, T/C [36]: 101% | viability, T/C [37]: 93% | viability, T/C [38]: 38% | viability, T/C [7]: 1.94% | viability, T/C [8]: 0.09% | viability, T/C [39]: 85.3% | viability, T/C [40]: 94.1% | viability, T/C [41]: 82.7% | viability, T/C [42]: 16.9% | viability, T/C [13]: 1.1% | viability, T/C [14]: 0.08% | viability, T/C [43]: 71% | viability, T/C [44]: 68.7% | viability, T/C [45]: 65.1% | viability, T/C [46]: 23.2% | viability, T/C [19]: 0.49% | viability, T/C [20]: 0.09% | viability, T/C [47]: 21.9% | viability, T/C [48]: 22.4% | viability, T/C [49]: 23.8% | viability, T/C [50]: 3.46% | viability, T/C [25]: 0.13% | viability, T/C [26]: 0.12%

CC(C)n1nc(-c2ccc3oc(N)nc3c2)c2c(N)ncnc21 + CC(C)NCC(C(=O)N1CCN(c2ncnc3c2C(C)CC3O)CC1)c1ccc(Cl)cc1
pIC50 (second compound 0.3 µM): 7.81 | pIC50 (second compound 0.949 µM): 7.85 | pIC50 (second compound 3 µM): 8.11 | pIC50 (second compound 9.49 µM): 8.74 | pIC50 (second compound 30 µM): > 9.50 | viability, T/C [31]: 96% | viability, T/C [32]: 96.5% | viability, T/C [33]: 89.6% | viability, T/C [34]: 59.2% | viability, T/C [1]: 31.3% | viability, T/C [2]: 6.8% | viability, T/C [35]: 88.9% | viability, T/C [36]: 95.8% | viability, T/C [37]: 80.1% | viability, T/C [38]: 58.4% | viability, T/C [7]: 29% | viability, T/C [8]: 4.5% | viability, T/C [39]: 88.5% | viability, T/C [40]: 77.5% | viability, T/C [41]: 68.5% | viability, T/C [42]: 47% | viability, T/C [13]: 18% | viability, T/C [14]: 4.85% | viability, T/C [43]: 66.6% | viability, T/C [44]: 57.3% | viability, T/C [45]: 43% | viability, T/C [46]: 17.2% | viability, T/C [19]: 5.97% | viability, T/C [20]: 0.5% | viability, T/C [47]: 16.4% | viability, T/C [48]: 18.2% | viability, T/C [49]: 11.7% | viability, T/C [50]: 2.86% | viability, T/C [25]: 0.38% | viability, T/C [26]: 0.2%

CCCS(=O)(=O)Nc1ccc(F)c(C(=O)c2c[nH]c3ncc(-c4ccc(Cl)cc4)cc23)c1F + CC(C)NCC(C(=O)N1CCN(c2ncnc3c2C(C)CC3O)CC1)c1ccc(Cl)cc1
pIC50 (second compound 0.3 µM): 5.97 | pIC50 (second compound 0.949 µM): 5.95 | pIC50 (second compound 3 µM): 6.34 | pIC50 (second compound 9.49 µM): > 6.50 | pIC50 (second compound 30 µM): > 6.50 | viability, T/C [3]: 82.5% | viability, T/C [4]: 52.1% | viability, T/C [5]: 12.2% | viability, T/C [6]: 0.57% | viability, T/C (second compound 0.3 µM, first compound 31.6 µM): 0.08% | viability, T/C (second compound 0.3 µM, first compound 100 µM): 0.68% | viability, T/C [9]: 74.3% | viability, T/C [10]: 54.4% | viability, T/C [11]: 7.73% | viability, T/C [12]: 0.33% | viability, T/C (second compound 0.949 µM, first compound 31.6 µM): 0.08% | viability, T/C (second compound 0.949 µM, first compound 100 µM): 0.4% | viability, T/C [15]: 63.9% | viability, T/C [16]: 22.1% | viability, T/C [17]: 1.94% | viability, T/C [18]: 0.06% | viability, T/C (second compound 3 µM, first compound 31.6 µM): 0.03% | viability, T/C (second compound 3 µM, first compound 100 µM): 0.24% | viability, T/C [21]: 30.6% | viability, T/C [22]: 9.75% | viability, T/C [23]: 0.65% | viability, T/C [24]: 0.02% | viability, T/C (second compound 9.49 µM, first compound 31.6 µM): 0.03% | viability, T/C (second compound 9.49 µM, first compound 100 µM): 0.11% | viability, T/C [27]: 2.32% | viability, T/C [28]: 0.63% | viability, T/C [29]: 0.12% | viability, T/C [30]: 0.07% | viability, T/C (second compound 30 µM, first compound 31.6 µM): 0.08% | viability, T/C (second compound 30 µM, first compound 100 µM): 0.12%
